Results as given in the NIST ThermoML archive (doi:10.1007/s10765-010-0902-x).

Assays:
[1] = 298.15 K; 101 kPa; Liquid
[2] = refractive index (Na D-line) (dimensionless); details: 298.15 K; 101.33 kPa; Liquid; Standard Abbe refractometry
[3] = xn = mol fraction of the nth substance listed; details: 298.15 K, 101 kPa, Liquid; for viscosity: Capillary tube (Ostwald / Ubbelohde) method
[4] = refractive index (Na D-line) (dimensionless); xn = mol fraction of the nth substance listed; details: 298.15 K, 101 kPa, Liquid, Standard Abbe refractometry

CCCCCl [1-chlorobutane]
Details | mass density [kg/m3] | refractive index
[1] | 880.87 | –
[2] | – | 1.3996

CCCCCl [1-chlorobutane] + CCCCOC(C)=O
Details | mass density, [3] [kg/m3] | refractive index, [4] | viscosity, [3] [mPa·s]
x2 = 0 | 880.87 | 1.3996 | –
x2 = 0.0503 | 880.41 | 1.3989 | 0.42
x2 = 0.1111 | 879.89 | 1.3981 | 0.432
x2 = 0.1527 | 879.56 | 1.3976 | 0.441
x2 = 0.2003 | 879.19 | 1.3971 | 0.451
x2 = 0.2996 | 878.52 | 1.3961 | 0.473
x2 = 0.3493 | 878.23 | 1.3956 | 0.484
x2 = 0.3978 | 877.97 | 1.3952 | 0.495
x2 = 0.4508 | 877.72 | 1.3947 | 0.507
x2 = 0.4997 | 877.51 | 1.3943 | 0.519
x2 = 0.55 | 877.31 | 1.3939 | 0.531
x2 = 0.5985 | 877.15 | 1.3936 | 0.543
x2 = 0.6501 | 876.99 | 1.3933 | 0.555
x2 = 0.7002 | 876.84 | 1.393 | 0.568
x2 = 0.7493 | 876.72 | 1.3928 | 0.58
x2 = 0.8042 | 876.6 | 1.3925 | 0.594
x2 = 0.85 | 876.51 | 1.3923 | 0.606
x2 = 0.8991 | 876.43 | 1.3921 | 0.619

CCCCCCCCl [1-chloroheptane]
Details | mass density [kg/m3] | refractive index
[1] | 872.79 | –
[2] | – | 1.4236

CCCCCCCCl [1-chloroheptane] + CCCCOC(C)=O
Details | mass density, [3] [kg/m3] | refractive index, [4] | viscosity, [3] [mPa·s]
x2 = 0 | 872.79 | 1.4236 | –
x2 = 0.0505 | 872.6 | 1.4219 | 0.828
x2 = 0.1006 | 872.52 | 1.4203 | 0.815
x2 = 0.1503 | 872.45 | 1.4189 | 0.803
x2 = 0.2014 | 872.41 | 1.4175 | 0.792
x2 = 0.3003 | 872.39 | 1.4147 | 0.77
x2 = 0.3505 | 872.42 | 1.4133 | 0.759
x2 = 0.4007 | 872.48 | 1.4118 | 0.749
x2 = 0.4503 | 872.56 | 1.4103 | 0.739
x2 = 0.5006 | 872.71 | 1.4087 | 0.729
x2 = 0.6001 | 873.07 | 1.4054 | 0.71
x2 = 0.65 | 873.32 | 1.4037 | 0.7
x2 = 0.6996 | 873.64 | 1.402 | 0.691
x2 = 0.7499 | 873.97 | 1.4003 | 0.682
x2 = 0.8001 | 874.32 | 1.3986 | 0.674
x2 = 0.9 | 875.2 | 1.3952 | 0.659

CCCCCCCl [1-chlorohexane]
Details | mass density [kg/m3] | refractive index
[1] | 873.39 | –
[2] | – | 1.4171

CCCCCCCl [1-chlorohexane] + CCCCOC(C)=O
Details | mass density, [3] [kg/m3] | refractive index, [4] | viscosity, [3] [mPa·s]
x2 = 0 | 873.39 | 1.4171 | –
x2 = 0.0568 | 873.06 | 1.4159 | 0.662
x2 = 0.1099 | 872.97 | 1.4148 | 0.659
x2 = 0.1638 | 872.88 | 1.4137 | 0.657
x2 = 0.2188 | 872.81 | 1.4125 | 0.655
x2 = 0.3237 | 872.8 | 1.4102 | 0.652
x2 = 0.3745 | 872.83 | 1.4091 | 0.651
x2 = 0.4271 | 872.87 | 1.4078 | 0.65
x2 = 0.4773 | 872.98 | 1.4066 | 0.649
x2 = 0.5286 | 873.11 | 1.4053 | 0.648
x2 = 0.6265 | 873.53 | 1.4028 | 0.646
x2 = 0.6753 | 873.78 | 1.4015 | 0.645
x2 = 0.7232 | 874.04 | 1.4001 | 0.645
x2 = 0.8171 | 874.66 | 1.3973 | 0.645
x2 = 0.8631 | 875.01 | 1.3959 | 0.645

CCCCCCCCCl [1-chlorooctane]
Details | mass density [kg/m3] | refractive index
[1] | 868.71 | –
[2] | – | 1.4282

CCCCCCCCCl [1-chlorooctane] + CCCCOC(C)=O
Details | mass density, [3] [kg/m3] | refractive index, [4] | viscosity, [3] [mPa·s]
x2 = 0 | 868.71 | 1.4282 | –
x2 = 0.0507 | 868.69 | 1.4271 | 1.032
x2 = 0.1002 | 868.7 | 1.4264 | 1.007
x2 = 0.1498 | 868.74 | 1.4256 | 0.981
x2 = 0.1999 | 868.73 | 1.4247 | 0.959
x2 = 0.3001 | 868.77 | 1.4222 | 0.911
x2 = 0.3496 | 868.82 | 1.4208 | 0.889
x2 = 0.4001 | 868.99 | 1.4192 | 0.867
x2 = 0.4503 | 869.17 | 1.4174 | 0.846
x2 = 0.5 | 869.45 | 1.4156 | 0.825
x2 = 0.6019 | 870.13 | 1.4114 | 0.784
x2 = 0.6999 | 871.1 | 1.4069 | 0.745
x2 = 0.7998 | 872.48 | 1.4018 | 0.708
x2 = 0.8999 | 874.25 | 1.3968 | 0.674

CCCCCCl [1-chloropentane]
Details | mass density [kg/m3] | refractive index
[1] | 876.93 | –
[2] | – | 1.4097

CCCCCCl [1-chloropentane] + CCCCOC(C)=O
Details | mass density, [3] [kg/m3] | refractive index, [4] | viscosity, [3] [mPa·s]
x2 = 0 | 876.93 | 1.4097 | –
x2 = 0.05 | 876.71 | 1.4081 | 0.55
x2 = 0.1 | 876.44 | 1.4065 | 0.552
x2 = 0.15 | 876.14 | 1.405 | 0.554
x2 = 0.2 | 875.89 | 1.4036 | 0.557
x2 = 0.3 | 875.46 | 1.401 | 0.563
x2 = 0.35 | 875.29 | 1.3998 | 0.567
x2 = 0.4 | 875.2 | 1.3987 | 0.571
x2 = 0.5 | 875.11 | 1.3967 | 0.58
x2 = 0.6 | 875.15 | 1.395 | 0.591
x2 = 0.7019 | 875.34 | 1.3936 | 0.603
x2 = 0.75 | 875.48 | 1.3931 | 0.61
x2 = 0.7998 | 875.62 | 1.3926 | 0.616
x2 = 0.9 | 875.94 | 1.3921 | 0.631

CCCCOC(C)=O [butyl ethanoate]
Details | mass density [kg/m3] | refractive index
[1] | 876.28 | –
[2] | – | 1.3918

CCCCOC(C)=O [butyl ethanoate] + CCCCCCCCCl
x1 = 1
Details | mass density [kg/m3] | refractive index
[3] | 876.28 | –
[4] | – | 1.3918

CCCCOC(C)=O [butyl ethanoate] + CCCCCCCCl
x1 = 1
Details | mass density [kg/m3] | refractive index
[3] | 876.28 | –
[4] | – | 1.3918

CCCCOC(C)=O [butyl ethanoate] + CCCCCCCl
x1 = 1
Details | mass density [kg/m3] | refractive index
[3] | 876.28 | –
[4] | – | 1.3918

CCCCOC(C)=O [butyl ethanoate] + CCCCCCl
x1 = 1
Details | mass density [kg/m3] | refractive index
[3] | 876.28 | –
[4] | – | 1.3918

CCCCOC(C)=O [butyl ethanoate] + CCCCCl
x1 = 1
Details | mass density [kg/m3] | refractive index
[3] | 876.28 | –
[4] | – | 1.3918
